# Reference: patent publication US11186564B2, “Dual NAV1.2/5HT2a inhibitors for treating CNS disorders” (Sunovion Pharmaceuticals Inc., priority 2016, dated 2021)
# Like-named read-outs stand apart in the source and are kept apart here.
# Legend:
# [1] = target: human sodium channel NaV1.2 (Homo sapiens, UniProt Q99250); assay: NaV1.2 inhibition, automated patch-clamp (Q-Patch HTX), slow inactivated state (state C); type: cell-based; conditions: for inhibition at 10 µM: read-out: NaV1.2 (% inh), 10 μM; for IC50: read-out: NaV1.2 IC50; for inhibition at 1 µM: 1 μM compound, read-out: NaV1.2 (% inh), 1 μM
# In short: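 IC50 comes from a least-squares fit of percent inhibition, relative to vehicle, of current in the slow-inactivated state. That state is reached by a 10 s prepulse to −50 mV, then 15 ms at −90 mV, then a 5 ms test pulse to 0 mV. Human NaV1.2 in stable CHO K-1 cells, held at −100 mV, automated patch clamp.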
# [2] = target: T1, recombinant human serotonin receptor 5-HT2A (Homo sapiens, UniProt P28223); assay: 5-HT2A antagonist Ca2+ assay in CHO-K1 cells (method A aequorin luminescence / method B FLIPR fluorescence); type: cell-based; conditions: antagonist mode vs EC80 of reference agonist, method A or B
# T1 construct: expressed in transfected cells; method B: loaded with Ca2+ dye
# In short: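 IC50 was obtained by nonlinear regression of percent inhibition of the EC80 agonist Ca2+ response in CHO-K1 cells stably expressing human 5-HT2A. The readout was aequorin luminescence with agonist injected 15 min after compound (A), or Ca2+-dye fluorescence on FLIPR with serotonin as agonist (B).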
# [3] = hNaV1.2 CHO cells, slow inactivated state
# [4] = 10 μM compound, hNaV1.2 CHO cells, slow inactivated state
# T1 sequence (P28223 whole entry): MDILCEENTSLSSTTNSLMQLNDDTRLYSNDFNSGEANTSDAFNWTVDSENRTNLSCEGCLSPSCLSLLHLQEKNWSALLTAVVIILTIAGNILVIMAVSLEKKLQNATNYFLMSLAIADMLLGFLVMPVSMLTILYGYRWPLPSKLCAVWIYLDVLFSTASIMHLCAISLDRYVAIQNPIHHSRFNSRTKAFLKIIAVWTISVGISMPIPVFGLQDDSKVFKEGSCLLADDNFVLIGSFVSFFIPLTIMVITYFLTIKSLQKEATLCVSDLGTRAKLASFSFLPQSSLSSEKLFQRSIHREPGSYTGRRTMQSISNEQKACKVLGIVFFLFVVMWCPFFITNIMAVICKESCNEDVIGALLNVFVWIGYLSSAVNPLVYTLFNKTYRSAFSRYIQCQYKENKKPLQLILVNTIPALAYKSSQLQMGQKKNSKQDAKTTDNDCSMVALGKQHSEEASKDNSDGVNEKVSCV
# Chain of human sodium channel NaV1.2 (Q99250 whole entry): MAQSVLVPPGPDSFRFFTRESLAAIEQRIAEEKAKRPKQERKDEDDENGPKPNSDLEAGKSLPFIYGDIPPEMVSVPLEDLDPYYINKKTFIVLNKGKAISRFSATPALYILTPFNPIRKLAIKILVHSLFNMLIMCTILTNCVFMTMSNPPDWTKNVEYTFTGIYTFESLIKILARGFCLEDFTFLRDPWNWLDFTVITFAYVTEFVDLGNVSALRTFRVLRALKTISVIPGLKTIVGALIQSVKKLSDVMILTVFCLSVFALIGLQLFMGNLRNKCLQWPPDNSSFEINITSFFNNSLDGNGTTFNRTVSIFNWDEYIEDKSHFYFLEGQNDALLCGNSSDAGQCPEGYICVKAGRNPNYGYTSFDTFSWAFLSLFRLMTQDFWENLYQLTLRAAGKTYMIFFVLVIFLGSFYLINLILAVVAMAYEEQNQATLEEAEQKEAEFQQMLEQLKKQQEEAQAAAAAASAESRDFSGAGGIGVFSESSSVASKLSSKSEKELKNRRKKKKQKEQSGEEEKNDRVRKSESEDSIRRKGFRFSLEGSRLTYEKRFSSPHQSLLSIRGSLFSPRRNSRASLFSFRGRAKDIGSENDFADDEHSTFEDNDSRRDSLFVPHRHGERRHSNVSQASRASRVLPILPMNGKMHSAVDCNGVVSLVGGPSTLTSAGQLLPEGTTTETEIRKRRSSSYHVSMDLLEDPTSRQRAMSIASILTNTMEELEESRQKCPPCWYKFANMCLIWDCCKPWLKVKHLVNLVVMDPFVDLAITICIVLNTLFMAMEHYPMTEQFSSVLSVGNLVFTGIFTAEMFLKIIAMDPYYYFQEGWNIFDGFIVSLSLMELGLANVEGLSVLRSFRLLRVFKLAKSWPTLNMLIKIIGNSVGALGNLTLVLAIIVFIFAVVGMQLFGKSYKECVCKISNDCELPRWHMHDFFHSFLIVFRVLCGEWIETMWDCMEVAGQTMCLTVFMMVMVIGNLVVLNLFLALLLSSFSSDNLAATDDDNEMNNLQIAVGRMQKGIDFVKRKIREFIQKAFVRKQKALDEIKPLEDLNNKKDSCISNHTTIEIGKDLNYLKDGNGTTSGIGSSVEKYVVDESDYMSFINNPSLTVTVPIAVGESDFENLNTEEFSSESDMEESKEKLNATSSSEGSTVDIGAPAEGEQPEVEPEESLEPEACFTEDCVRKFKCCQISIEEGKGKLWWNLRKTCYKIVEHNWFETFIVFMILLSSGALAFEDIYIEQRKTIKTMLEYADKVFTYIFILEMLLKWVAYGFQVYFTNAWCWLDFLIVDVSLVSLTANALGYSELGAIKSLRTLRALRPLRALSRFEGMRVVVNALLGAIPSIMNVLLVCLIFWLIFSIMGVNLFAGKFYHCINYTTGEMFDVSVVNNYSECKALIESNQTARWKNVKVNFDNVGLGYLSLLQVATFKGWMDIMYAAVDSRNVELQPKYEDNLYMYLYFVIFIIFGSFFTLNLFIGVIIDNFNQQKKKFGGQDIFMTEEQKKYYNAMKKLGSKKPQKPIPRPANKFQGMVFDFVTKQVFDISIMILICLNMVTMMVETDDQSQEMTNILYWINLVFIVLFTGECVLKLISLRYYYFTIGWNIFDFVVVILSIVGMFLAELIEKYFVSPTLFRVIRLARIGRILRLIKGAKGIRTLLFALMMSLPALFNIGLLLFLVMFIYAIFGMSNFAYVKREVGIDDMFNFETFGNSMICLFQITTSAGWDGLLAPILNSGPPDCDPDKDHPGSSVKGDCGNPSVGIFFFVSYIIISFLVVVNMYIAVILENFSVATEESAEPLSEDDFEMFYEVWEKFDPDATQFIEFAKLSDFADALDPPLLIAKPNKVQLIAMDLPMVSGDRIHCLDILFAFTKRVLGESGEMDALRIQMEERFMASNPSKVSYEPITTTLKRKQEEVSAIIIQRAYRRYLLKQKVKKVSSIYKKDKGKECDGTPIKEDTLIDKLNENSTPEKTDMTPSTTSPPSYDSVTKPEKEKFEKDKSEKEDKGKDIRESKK
"inhibition at 1 µM [1, 3] [%]",SMILES,"IC50 [1, 3] [nM]",IC50 ([2]; read-out: 5HT2A IC50) [µM],other results
–,"OC(COC1CCCCC1)CN1CCC2(CCc3ccccc32)CC1 (stereo not drawn) [Example 400, 1-(cyclohexyloxy)-3-(2,3-dihydrospiro[indene-1,4′-piperidin]-1′-yl)propan-2-ol]",–,–,"inhibition at 10 µM ([1]; CHO): 102%; IC50 ([2]; 5HT2A IC50, μM): 2.29 µM"
–,"O=C1c2ccccc2CCCN1CCN1CCC(Oc2ccc(F)cc2)CC1 [Example 208, 2-(2-(4-(4-fluorophenoxy)piperidin-1-yl)ethyl)-2,3,4,5-tetrahydro-1H-benzo[c]azepin-1-one]",1210,0.01,–
–,"OC(COC1CCCc2ccccc21)CN1CCN(Cc2ccccc2)CC1 (stereo not drawn) [Example 83, 1-(4-benzylpiperazin-1-yl)-3-((1,2,3,4-tetrahydronaphthalen-1-yl)oxy) propan-2-ol]",20,2.87,–
–,"O[C@@H](CO[C@@H]1CCc2ccccc21)CN1CC[C@@H](Oc2ccc(F)cc2)C1 [Example 47, (R)-1-(((R)-2,3-dihydro-1H-inden-1-yl)oxy)-3-((R)-3-(4-fluorophenoxy)pyrrolidin-1-yl)propan-2-ol]",360,0.1,–
–,"O[C@H](COC1CCCCC1)CN1CCC2(CCc3ccccc3O2)CC1 [Example 437, (S)-1-(cyclohexyloxy)-3-(spiro[chromane-2,4′-piperidin]-1′-yl)propan-2-ol]",3410,0.09,–
56,"CN1CCN(CC2CCc3ccccc32)CC1COc1ccc(F)cc1 (stereo not drawn) [Example 270, 4-((2,3-dihydro-1H-inden-1-yl)methyl)-2-((4-fluorophenoxy)methyl)-1-methylpiperazine]",–,0.11,–
–,"COc1ccccc1OC1CCC2(CCN(CC3CCc4cccnc43)C2)C1 (stereo not drawn) [Example 373, 2-((6,7-dihydro-5H-cyclopenta[b]pyridin-7-yl)methyl)-7-(2-methoxyphenoxy)-2-azaspiro[4.4]nonane]",2420,0.44,–
–,"Clc1cccc(N2CCN(Cn3c(COc4ccccc4)nc4ccccc43)CC2)c1 [Example 61, 1-((4-(3-chlorophenyl)piperazin-1-yl)methyl)-2-(phenoxymethyl)-1H-benzo[d]imidazole]",–,0.2,"inhibition at 10 µM [1, 4]: 8%"
25,"O=C(CN1CCC(Oc2ccc(F)cc2)CC1)C1CCc2ccccc21 (stereo not drawn) [Example 215, 1-(2,3-dihydro-1H-inden-1-yl)-2-(4-(4-fluorophenoxy)piperidin-1-yl)ethan-1-one]",–,0.19,–
48,"COc1ccccc1OC1COC2(C1)CN(CC1CCc3ccccc31)C2 (stereo not drawn) [Example 363, 2-((2,3-dihydro-1H-inden-1-yl)methyl)-7-(2-methoxyphenoxy)-5-oxa-2-azaspiro[3.4]octane]",–,0.62,–
–,"O=C1c2ccc(Br)cc2CCCN1CCN1CCC(Oc2ccc(F)cc2)CC1 [Example 213, 7-bromo-2-(2-(4-(4-fluorophenoxy)piperidin-1-yl)ethyl)-2,3,4,5-tetrahydro-1H-benzo[c]azepin-1-one]",180,0.08,–
–,"O[C@@H](COC1CCCCC1)CN1C[C@@H]2C[C@H]1CN2Cc1ccccc1 [Example 308, (R)-1-((1S,4S)-5-benzyl-2,5-diazabicyclo[2.2.1]heptan-2-yl)-3-(cyclohexyloxy)propan-2-ol]",–,4.02,"inhibition at 10 µM [1, 4]: 27%"
–,"O=C1c2ccccc2CCN1CCN1CC[C@H](Oc2ccc(F)cc2)C1 [Example 26, (S)-2-(2-(3-(4-fluorophenoxy)pyrrolidin-1-yl)ethyl)-3,4-dihydroisoquinolin-1(2H)-one]",–,0.17,"inhibition at 10 µM [1, 4]: 70%"
14,"COc1ccc2c(c1)C(CN1CCC[C@@H](Oc3ccc(F)cc3)C1)CC2 (stereo partly drawn) [Example 255, (3R)-3-(4-fluorophenoxy)-1-((6-methoxy-2,3-dihydro-1H-inden-1-yl)methyl)piperidine]",–,0.36,–

SMILES,"inhibition at 1 µM [1, 3] [%]","IC50 [1, 3] [nM]",IC50 ([2]; read-out: 5HT2A IC50) [µM],other results
"O[C@H](CO[C@H]1CCCc2ccccc21)CN1CCN(Cc2ccccc2)CC1 [Example 87, (S)-1-(4-benzylpiperazin-1-yl)-3-(((S)-1,2,3,4-tetrahydronaphthalen-1-yl)oxy)propan-2-ol]",15,–,3.63,–
